What was measured:
[1] = tested on: Streptococcus mutans MT 8148 strain; assay: Test Example 4: insoluble glucan production by S. mutans with oligosaccharides and sugar alcohols, with or without L. salivarius TI 2711; type: cell-based
Protocol: (§1) 5% each of xylitol, erythritol and sorbitol as sugar alcohols, and fructo-oligosaccharide and kestose as oligosaccharides were each added to a liquid medium consisting of GAM bouillon (Nissui) as a base medium and containing 0.7% glucose and 3% sucrose, and each medium was inoculated with 1×10^7 CFU/ml of the Streptococcus mutans MT 8148 strain. Then, aerobic culture was performed at 37° C. for 24 hours.
(§2) On the other hand, 1×10^7 CFU/ml of the Streptococcus mutans MT 8148 strain was inoculated to the aforementioned medium containing 5% of each sugar alcohol or oligosaccharide, and 1×10^7 CFU/ml of the Lactobacillus salivarius TI 2711 strain was further inoculated to the medium. Then, aerobic culture was similarly performed at 37° C. for 24 hours. After completion of the culture, the cell numbers of Streptococcus mutans MT 8148 strain and amounts of insoluble glucan were determined (according to the methods described in Test Example 1) for the both types of culture.

[2] = tested on: Streptococcus mutans MT 8148 strain; assay: Test Example 4: number of viable S. mutans with oligosaccharides and sugar alcohols, with or without L. salivarius TI 2711; type: cell-based; settings: 5% addition, aerobic 37° C. 24 hours
Protocol: as §1, §2

[3] = With inoculation of L. salivarius TI 2711 1×10^7 CFU/ml
[4] = Without inoculation of L. salivarius, control base medium 4.0 × 10^5

Compound	inhibition of the production of insoluble glucan ([1]; erythritol alone, 5% addition)	inhibition of the production of insoluble glucan ([1]; mixed culture inoculated with Lactobacillus salivarius TI 2711 strain, amount without inoculation taken as 100%)	Number of viable cells of S. mutans (CFU/ml) [2, 3]	Number of viable cells of S. mutans (CFU/ml) [2, 4]
OC[C@@H](O)[C@@H](O)CO [Erythritol, erythritol]	about 60%	90%	1.0 × 10^4 CFU/ml	1.0 × 10^5 CFU/ml
OC[C@H]1O[C@@](CO)(OC[C@@]2(O[C@H]3O[C@H](CO)[C@@H](O)[C@H](O)[C@H]3O)O[C@H](CO)[C@@H](O)[C@@H]2O)[C@@H](O)[C@@H]1O [Kestose, kestose]			2.0 × 10^5 CFU/ml	5.0 × 10^5 CFU/ml
OC[C@@H](O)[C@H](O)[C@@H](O)CO [Xylitol, xylitol]			5.0 × 10^5 CFU/ml	4.0 × 10^5 CFU/ml
OC[C@@H](O)[C@@H](O)[C@H](O)[C@@H](O)CO [Sorbitol, sorbitol]			3.0 × 10^5 CFU/ml	4.0 × 10^5 CFU/ml
